What is called IC50 is the concentration at which inhibition is half-maximal. What is called kinetic solubility is the concentration staying in solution when a stock, usually in DMSO, is diluted into the medium. The chromatographic logD is lipophilicity estimated from chromatographic retention. As a reminder, the Papp A→B is how fast a substance crosses the layer from the apical side. Higher therefore signals fast passage.

Molecules are shown by their SMILES. ≈ marks a conversion by molar mass, not a printed value. Like-named read-outs stand apart in the source and are kept apart here.

These results are taken from article PMC12067128, “Macrocyclization: Enhancing Drug-like Properties of Discoidin Domain Receptor Kinase Inhibitors” (ACS Medicinal Chemistry Letters, 2025).

The target in one series is T1, DDR1 (Homo sapiens, UniProt Q08345).
T1 construct: ProLink™ (PK) tagged full-length DDR1b; host or cells: U2OS human osteosarcoma cells (PathHunter U2OS DDR1)
T1 sequence (Q08345 19-913): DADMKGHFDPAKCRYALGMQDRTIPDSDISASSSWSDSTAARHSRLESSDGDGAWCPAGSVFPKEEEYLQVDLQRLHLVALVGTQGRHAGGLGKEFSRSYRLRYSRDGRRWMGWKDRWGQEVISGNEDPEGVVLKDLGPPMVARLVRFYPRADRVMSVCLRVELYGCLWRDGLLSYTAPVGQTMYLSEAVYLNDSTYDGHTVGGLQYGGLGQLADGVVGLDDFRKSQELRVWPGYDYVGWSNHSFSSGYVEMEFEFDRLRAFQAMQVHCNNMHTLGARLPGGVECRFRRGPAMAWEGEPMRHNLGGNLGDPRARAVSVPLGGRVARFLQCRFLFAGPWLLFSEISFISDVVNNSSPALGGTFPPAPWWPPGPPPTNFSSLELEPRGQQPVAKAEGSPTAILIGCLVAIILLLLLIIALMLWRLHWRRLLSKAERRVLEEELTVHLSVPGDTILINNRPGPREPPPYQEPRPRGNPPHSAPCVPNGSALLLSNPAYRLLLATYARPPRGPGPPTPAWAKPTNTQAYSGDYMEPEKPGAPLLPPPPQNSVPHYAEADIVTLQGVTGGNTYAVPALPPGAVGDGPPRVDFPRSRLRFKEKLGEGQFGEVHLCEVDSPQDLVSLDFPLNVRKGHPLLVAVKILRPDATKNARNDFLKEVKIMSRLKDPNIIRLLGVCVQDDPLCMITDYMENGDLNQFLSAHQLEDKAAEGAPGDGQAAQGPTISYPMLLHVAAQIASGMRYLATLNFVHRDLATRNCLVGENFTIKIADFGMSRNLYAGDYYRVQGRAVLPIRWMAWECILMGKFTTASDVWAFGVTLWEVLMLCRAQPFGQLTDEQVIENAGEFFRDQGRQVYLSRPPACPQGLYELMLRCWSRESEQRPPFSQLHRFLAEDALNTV
The series can be described thus: PathHunter U2OS DDR1 Functional Assay (DDR1 cellular assay). The following applies: U2OS PathHunter cells, collagen II stimulation; read-out: Cell DDR1 IC50. The class given is cell-based. The procedure:
page 17: In vitro Biology DDR1 cellular assay The activity of Discoidin Domain-containing Receptor protein kinase (DDR) inhibitors was determined using the PathHunter® U2OS DDR1 Functional Assay which employs Enzyme Fragment Complementation (EFC) technology, where the β-galactosidase (β-gal) enzyme is split into two fragments, ProLink (PK) and Enzyme Acceptor (EA). Independently these fragments […] β-gal enzyme. In the PathHunter® U2OS DDR1 Functional Assay, the U2OS human osteosarcoma cell line is modified to co-express a ProLinkTM (PK) tagged full-length DDR1b and an Enzyme Acceptor (EA) tagged SH2 domain. Collagen II, as a ligand, induces activation of DDR1b which results in cross-phosphorylation. The SH2-EA fusion protein then specifically binds the phosphorylated receptor resulting in complementation of the two fragments of β-gal and formation of a functional enzyme. β-gal activity is then quantitatively detected using a chemiluminescent substrate. PathHunter® Human U2OS DDR1 cells were prepared in AssayCompleteTM Cell Plating 16 Reagent (DiscoverX 93-0563R16A) and plated at 5000 cells/well in a 384-well white, clear-bottom, sterile plate (ThermoFisher 142762) and incubated for 90 minutes at 37 °C, 5% CO2. Test compounds were serially diluted from a top concentration of 10 mM (1000x final assay concentration) directly in a 384-well low-volume polypropylene plate (Greiner bio-one 784201) using an Echo 555 acoustic liquid handler (Labcyte). Test compounds were diluted in AssayCompleteTM Cell Plating 16 Reagent then added to cells using an Integra ViaFlow384 electronic reagent dispenser and pre-incubated at 37 °C, 5% CO2 for 30 minutes. Following compound pre-incubation, the cells were stimulated with 20 μg/ml Bovine Type II Collagen (DiscoverX 92-1090) with incubation for 20 hours at 37 °C, 5% CO2. Next, PathHunter Detection Reagent (DiscoverX 93-[…]) was added to the cells, incubated for 60 minutes at 25 °C in the dark, prior to capturing the chemiluminescent signal on a PHERAstar (BMG LABTECH). The percentage of inhibition was calculated for each concentration of compound using a 0.1% DMSO vehicle/Collagen II control response as a 0% inhibition and a 10 nM Dasatinib/Collagen II positive 17 page 18: control response as a 100% inhibition. The final assay concentration of the top of the test compound CRC was 10 μM. 18

A short description of another series: Kinetic solubility. The class given is physicochemical. The following applies: for solubility kinetic at 2 h: phosphate buffered saline, PBS pH 7.4, 2% DMSO, 2 h room temperature, assay range 5-200 µM, read-out: KS (kinetic solubility). The protocol:
Using a stock solution of test compound in 100% DMSO, duplicate dilutions were prepared at a nominal concentration of 200 µM in 0.1 M phosphate buffered saline (PBS) at pH 7.4, with a 2% final DMSO content. Test compound calibration standards were prepared at 200 µM and 10 µM in 100%
DMSO. The PBS and DMSO dilutions were equilibrated on a shaking platform at room temperature for two hours prior to filtration using a Multiscreen HTS solubility filter plate (Millipore). Filtrates were analysed by LC-UV-MS and the concentration of compound in PBS filtrate determined by comparing the UV absorbance peak with that of the two DMSO calibration standards. Mass spectrometry will be used to confirm the presence of the expected molecular ion in the UV peak measured. The effective range of the assay is 5 – 200 µM. […]

Series [1] in a line: ChromLogD chromatographic lipophilicity. The following applies: C18 column, pH 7.4. The class given is physicochemical. The protocol: The chromatographic method was based on the differential retention times of test compounds on a C18 column (Luna C18(2), 30 x 2mm, […], 100 Å) under controlled liquid chromatography conditions, comparing retention times with those of standards (Benzyl Alcohol, p-Nitrophenol, Bromobenzene, Anthracene) with known log D values. Stock solutions (10 mM in DMSO) of test compounds were diluted to a final concentration of 1 mM. The mobile phases consisted of A (20mM Ammonium Acetate buffered to pH 7.4 with ammonia hydroxide) and B (ACN). The LC gradient profile was the following: a linear increase to 90% B during 0.0 to 1.3 min, hold at 90 % B during 1.3 to 1.53 min then back to 0.0% B from 1.53 to 1.60 min, hold at 0% B until the end of the run (2.00 min). 1 μL of the sample volume was injected, using a flow rate of 0.5 mL/min and a column temperature of 40°C. All compounds were detected by UPLC/MS analysis using a a Waters ACQUITY UPLC equipped with a Photo Diode Array (PDA) detector coupled with a Waters ACQUITY QDa single quadrupole mass spectrometer with an Electrospray ionization (ESI) source.
The retention times were obtained by processing data in Waters Openlynx. The standards are then plotted in excel and the best fit line was used as the basis for calculating the unknown LogD values from the retention times of the peaks obtained.

A short description of the next series: in vitro. The following applies: dog, MDCK, pH 7.4.
For series [2], the system named is MDCK-WT wild-type cells.
For series [3], the system named is MDCK-WT wild-type cells. Nature of the series: MDCK-WT permeability assay.
Series [4] can be described thus: MDCK-WT permeability assay. The following applies: dog, MDCK, pH 7.4.

Consider `Cn1cc2c3nc(ncc31)Nc1cnn(c1)CCCNCCOc1ccc-2cc1` [Compound 5a], for which the IC50 on DDR1 was found to be 125 nM. In the series “Kinetic solubility”, the “kinetic solubility (in words)” value is “less soluble” and the kinetic solubility at 2 h was found to be 20 ± 3 µM (≈ 7.79 µg/mL). In series [1], this molecule displayed a chromatographic logD of 1.75. In “in vitro”, this molecule returned a Papp A→B at 1 h, 10 µM of 18.4 ± 0.6 ×10⁻⁶ cm/s. For the same molecule, the “permeability in the MDCK model (in words)” value (“permeability” below) in the series with MDCK-WT wild-type cells [2] was “highly permeable”.

As to `Cn1cc2c3nc(ncc31)Nc1cnn(c1)CCCNC(=O)COc1ccc-2cc1` [Compound 5b], the IC50 on DDR1 came to 2000 nM. Moreover, in the series “Kinetic solubility”, the “kinetic solubility (in words)” value is “less soluble” and the solubility (kinetic) at 2 h was 16 ± 1 µM (≈ 6.46 µg/mL). The “permeability” value with MDCK-WT wild-type cells [3] is on record as “highly permeable”. In series [4], the Papp A→B at 1 h, 10 µM turned out to be 21 ± 0.8 ×10⁻⁶ cm/s. The chromatographic logD in series [1] amounted to 1.52.

For the molecule `c1cc2nc(n1)Nc1cnn(c1)CCCNCCOc1ccc(cc1)N2` [Compound 6a], at DDR1, the IC50 was determined as 1250 nM. In “Kinetic solubility”, the “kinetic solubility (in words)” value is “highly soluble” and the kinetic solubility at 2 h is 188 ± 18 µM (≈ 66.1 µg/mL). For the same molecule, the chromatographic logD in series [1] amounted to 1.15. In the series “in vitro”, this molecule returned a Papp A→B at 1 h, 10 µM of 5.8 ± 1.1 ×10⁻⁶ cm/s. Further, the “permeability” value in the series on MDCK-WT wild-type cells [2] is on record as “moderately permeable”.

Consider `O=C1COc2ccc(cc2)Nc2ccnc(n2)Nc2cnn(c2)CCCN1` [Compound 6b], for which, on DDR1, the IC50 is greater than 3150 nM. Further, in “Kinetic solubility”, the “kinetic solubility (in words)” value is listed as “highly soluble” and the solubility (kinetic) at 2 h was determined as 198 ± 3 µM (≈ 72.3 µg/mL). In the series with MDCK-WT wild-type cells [3], the “permeability” value is listed as “moderately permeable”. In series [4], this molecule showed a Papp A→B at 1 h, 10 µM of 4.8 ± 1 ×10⁻⁶ cm/s. In series [1], this molecule gave a chromatographic logD of 1.17.
